Patent publication US20160375103A1, “DIURETIC AND NATRIURETIC POLYPEPTIDES” (Mayo Foundation for Medical Education and Research, priority 2006, published 2016)

Assays:
paced dogs = experiment: 90 minute infusion of ASBNP.1 (100 pmol/kg/minute) in paced dogs; type: in vivo, dog; conditions: 100 pmol/kg/minute for 90 minutes
Experimental: FIG. 34 is a graph plotting urinary sodium excretion (microEq/min) in paced dogs at the indicated times after beginning administration of ASBNP.1 polypeptide (100 pmol/kg/minute) for 90 minutes. BL=baseline; 30 min=30 minutes of ASBNP.1 polypeptide administration; 60 min=60 minutes of ASBNP.1 polypeptide administration; 90 min=90 minutes of ASBNP.1 polypeptide administration; Washout=after washout period at stop of infusion; Rec 1=30 minutes after stopping infusion; and Rec 2=60 minutes after stopping infusion.
In another experiment, an ASBNP.1 polypeptide preparation was administered to dogs (100 pmol/kg/minute for 90 minutes). Urinary sodium excretion, urine flow, mean arterial blood pressure, renal blood flow, pulmonary capillary wedge pressure, and cardiac output were measured after 30, 60, and 90 minutes of administering the ASBNP.1 polypeptide. Administration of ASBNP.1 polypeptide was followed by a washout period of 30 minutes. The washout was performed by administering normal saline. Urinary sodium excretion, urine flow, mean arterial blood pressure, renal blood flow, pulmonary capillary wedge pressure, and cardiac output were measured again after the washout period, and after each of two recovery periods at 60 minutes (Rec 1) and 90 minutes (Rec 2) after administration of the ASBNP.1 polypeptide.

normal dogs = experiment: intravenous infusion of ASBNP.1 in normal dogs; type: in vivo, dog
Experimental: A truncated form of ASBNP that terminates prior to the cysteine and contains a 13 amino acid C-terminus tail was designed and synthesized. This polypeptide is referred to as an ASBNP.1 polypeptide (FIG. 1). The biological effects of intravenous ABNP.1 infusion were tested in normal dogs. Briefly, six normal dogs were infused with 2, 10, and 100 pmol of an ASBNP.1 polypeptide preparation, i.e., each dog received consecutive infusions of 2, 10, and 100 pmol of an ASBNP.1 polypeptide preparation. Urine flow, urinary sodium excretion, distal fractional tubular sodium reabsorption, proximal tubular fractional sodium reabsorption, mean arterial blood pressure, plasma cGMP levels, glomerular filtration rate, renal blood flow, and plasma renin levels were measured as described elsewhere (Chen et al., Am. J. Physiol. Regul. Integr. Comp. Physiol., 288: R1093-R1097 (2005) and Haber et al., J. Clin. Endocrinol. Metab., 29:1349-1355 (2005)). […] Systemic administration of the ASBNP.1 polypeptide had no effect on glomerular filtration rate, renal blood flow, or mean arterial blood pressure (FIGS. 8-10).

HASMCs = experiment: cGMP levels in HASMCs; type: cell-based
Experimental: FIG. 12 is a bar graph plotting cGMP levels in HASMCS treated with BNP, ASBNP, or ASBNP.1 at the indicated concentrations. OX represents oxidized, and non-OX represents non-oxidized.
(§1) The following experiments were performed to compare the activities of BNP, ASBNP, and ASBNP.1 polypeptides. Briefly, synthesized forms of BNP, ASBNP, and ASBNP.1 were administered to HUVECs and HASMCs, and cGMP levels were determined.

HUVECs = experiment: cGMP levels in HUVECs; type: cell-based, human
Text: FIG. 11 is a bar graph plotting cGMP levels in HUVECS treated with BNP, ASBNP, or ASBNP.1 at the indicated concentrations. OX represents oxidized, and non-OX represents non-oxidized.
(§2) In some embodiments, a polypeptide provide herein can lack the ability to stimulate production of cGMP in human umbilical vascular endothelial cells (HUVEC). Intracellular cGMP production can be assayed using, for example, the BIOTRACK cGMP enzyme immunoassay kit (Amersham Pharmacia Biotech). In other embodiments, a polypeptide provide herein can lack vasoactivity. Vasoactivity can be assessed by determining responsitivity of a blood vessel (e.g., a carotid artery in an organ chamber) to the polypeptide.
as §1

[1] = system: paced dog model of congestive heart failure (CHF); experiment: intravenous infusion in paced dog model of congestive heart failure (CHF), consecutive doses; type: in vivo; conditions: paced CHF dogs
Experimental: The biological effects of intravenous ABNP.1 infusion were tested in a paced dog model of congestive heart failure (CHF). Briefly, 10 dogs underwent surgical implantation of a programmable cardiac pacemaker (Medtronic, Minneapolis, Minn.). After postoperative recovery, the animals received 11 days of rapid ventricular pacing (240 beats/minute), which can induce overt congestive heart failure CHF as described elsewhere (Chen et al., Circulation, 100:2443-2448 (1999)). The dogs were intravenously infused with 2, 10, and 100 pmol of an ASBNP.1 polypeptide preparation, i.e., each dog received consecutive infusions of 2, 10, and 100 pmol of an ASBNP.1 polypeptide preparation.
Acute hemodynamic studies were performed at the time of infusion, and comparisons were made between groups and among dogs at baseline and during each infusion. Urine flow, urinary sodium excretion, distal fractional tubular sodium reabsorption, proximal tubular fractional sodium reabsorption, plasma cGMP levels, rennin levels, glomerular filtration rate, renal blood flow, mean arterial blood pressure, urinary cGMP excretion, urinary ANP excretion, urinary BNP excretion, plasma BNP levels, plasma ANP levels, pulmonary capillary wedge pressure, cardiac output, systemic vascular resistance, angiotensin II levels, and aldosterone levels were measured as described elsewhere (Chen et al., Am. J. Physiol. Regul. Integr. Comp. Physiol., 288: R1093-R1097 (2005) and Haber et al., J. Clin. Endocrinol. Metab., 29:1349-1355 (2005)). […] There was no effect on distal tubular fractional sodium reabsorption, proximal tubular fractional sodium reabsorption renal blood flow, plasma cGMP, mean arterial blood pressure, plasma BNP, plasma ANP, pulmonary capillary wedge pressure, or angiotensin II levels (FIGS. 17, 18, 19, 22, 23, 28, 29, and 32).

[2] = system: rabbit artery that was pre-constricted; experiment: vasoactivity in pre-constricted rabbit artery (vascular rings); conditions: compared with BNP
Text: FIG. 13 is a line graph plotting vasoactivity measurements obtained from rabbit vascular rings treated with either BNP, ASBNP, or ASBNP.1 at the indicated concentrations.
as §2, §1

[3] = normal dogs, 2, 10, 100 pmol i.v.
[4] = normal dogs, consecutive i.v. infusions of 2, 10, 100 pmol
[5] = consecutive i.v. infusions of 2, 10, 100 pmol

“ASBNP.1: truncated form of ASBNP that terminates prior to the cysteine, 13 amino acid C-terminus tail; 42 amino acid residues (SEQ ID NO:1) (SPKMVQGSGCFGRKMDRISSSSGLGCKGKHPLPPRPPSPIPV)” was tested, and the “PAP (pulmonary arterial pressure)” value (paced dogs) was “without a change”, the “RAP (right arterial pressure)” value (paced dogs) was “without a change” and the cardiac output (paced dogs) was “No significant effect”. For the same substance, the “mean arterial blood pressure” value (paced dogs) was “No significant effect”, the renal blood flow (paced dogs) was “No significant effect” and the urinary sodium excretion (paced dogs) was “increase”. The urine flow (paced dogs) was “increase”, the “pulmonary capillary wedge pressure” value (paced dogs; 60 minutes after administration) was “decrease” and the “distal and proximal tubular fractional sodium reabsorption” value (normal dogs; [3]) was “targeted distal tubules”. The glomerular filtration rate (normal dogs; [3]) was “no effect”, the “mean arterial blood pressure” value (normal dogs; [3]) was “no effect” and the renal blood flow (normal dogs; [3]) was “no effect”. For the same substance, the “urinary sodium excretion (natriuretic effect)” value (normal dogs; [4]) was “diuretic and natriuretic effects”, the “urine flow (diuretic effect)” value (normal dogs; [4]) was “diuretic and natriuretic effects” and the “plasma cGMP” value (normal dogs; normal dogs, super high is 100 pmol) was “elevated at the super high dose”. For the same substance, the plasma renin (normal dogs; normal dogs, two higher doses 10 and 100 pmol) was “trend towards a decreased renin at the two higher doses”, the “cGMP levels in HASMCs” value (HASMCs) was “no effect” and the “cGMP levels in HUVECs” value (HUVECs) was “no effect”. For the same substance, the aldosterone [1] was “increased from the administration of the low level of polypeptide and continued to increase throughout the remainder of the experiment”, the “angiotensin II levels” value [1] was “no effect” and the cardiac output [1] was “decreased from the administration of the high level of polypeptide and remained decrease throughout the remainder of the experiment”. The “distal tubular fractional sodium reabsorption” value [1] was “no effect”, the “mean arterial blood pressure” value [1] was “no effect” and the “plasma ANP” value [1] was “no effect”. The “plasma BNP” value [1] was “no effect”, the “plasma cGMP” value [1] was “no effect” and the “proximal tubular fractional sodium reabsorption” value [1] was “no effect”. For the same substance, the “pulmonary capillary wedge pressure” value [1] was “no effect”, the renal blood flow [1] was “no effect” and the renin [1] was “increased throughout the washout period”. The systemic vascular resistance [1] was “increased during the high, super high, washout, and recovery 1 phases”, the “urinary sodium excretion (natriuretic effect)” value [1, 5] was “diuretic but not natriuretic effects” and the “urine flow (diuretic effect)” value [1, 5] was “diuretic but not natriuretic effects”. For the same substance, the glomerular filtration rate ([1]; high is 10 pmol) was “increased glomerular filtration rate at the high level”, the “urinary cGMP excretion” value ([1]; high is 10 pmol, super high is 100 pmol) was “increased urinary cGMP excretion at the high and super high levels” and the “urinary ANP excretion” value ([1]; high level (10 pmol)) was “increased urinary ANP excretion”. For the same substance, the “urinary BNP excretion” value ([1]; super high level (100 pmol)) was “increased urinary BNP excretion” and the “vasoactivity on pre-constricted rabbit artery” value [2] was “no effect”.

In the case of “ASBNP: variant form of BNP generated by alternative splicing, 60 amino acid residues in length (SEQ ID NO:4) (SPKMVQGSGCFGRKMDRISSSSGLGCKGKHPLPPRPPSPIPVCDTVRVTLGFVVSGNHTL) [reference compound]”, the “cGMP levels in HASMCs” value (HASMCs) was “minimal effects”, the “cGMP levels in HUVECs” value (HUVECs) was “minimal effects” and the “vasoactivity on pre-constricted rabbit artery” value [2] was “no effect”.
